Like-named read-outs stand apart in the source and are kept apart here.
Assays:
[1] = target: T1, ABL1(E255K)-phosphorylated (Homo sapiens, UniProt P00519, E255K); experiment: KINOMEscan panel screen; format: binding; conditions: read-out: Percent Control(%)
T1 construct: purchased DiscoveRx KINOMEscan (Ambit Biosciences)

ABL1-nonphosphorylated = target: T2, ABL1-nonphosphorylated (Homo sapiens, UniProt P00519); experiment: KINOMEscan panel screen; format: binding; conditions: read-out: Percent Control(%)
T2 construct: purchased DiscoveRx KINOMEscan (Ambit Biosciences)

ADCK4 = target: T3, ADCK4 (Homo sapiens, UniProt Q96D53); experiment: KINOMEscan panel screen; format: binding; conditions: read-out: Percent Control(%)
T3 construct: purchased DiscoveRx KINOMEscan (Ambit Biosciences)
T3 sequence (Q96D53 whole entry): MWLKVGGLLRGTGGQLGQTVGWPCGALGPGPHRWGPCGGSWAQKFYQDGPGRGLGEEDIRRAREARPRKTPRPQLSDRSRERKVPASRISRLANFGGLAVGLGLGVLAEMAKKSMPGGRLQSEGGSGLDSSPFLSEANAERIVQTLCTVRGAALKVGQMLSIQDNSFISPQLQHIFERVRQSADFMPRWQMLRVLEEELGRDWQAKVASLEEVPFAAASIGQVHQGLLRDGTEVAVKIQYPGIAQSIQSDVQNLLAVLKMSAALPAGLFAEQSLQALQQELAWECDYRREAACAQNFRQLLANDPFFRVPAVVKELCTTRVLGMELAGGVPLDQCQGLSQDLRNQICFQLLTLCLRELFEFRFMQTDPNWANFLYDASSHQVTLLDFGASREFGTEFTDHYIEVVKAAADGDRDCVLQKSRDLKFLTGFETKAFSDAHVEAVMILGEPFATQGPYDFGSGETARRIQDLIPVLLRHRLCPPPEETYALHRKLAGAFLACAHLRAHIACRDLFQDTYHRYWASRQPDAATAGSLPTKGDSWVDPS

AKT2 = target: T4, AKT2 (Homo sapiens, UniProt P31751); experiment: KINOMEscan panel screen; format: binding; conditions: read-out: Percent Control(%)
T4 construct: purchased DiscoveRx KINOMEscan (Ambit Biosciences)
T4 sequence (P31751 whole entry): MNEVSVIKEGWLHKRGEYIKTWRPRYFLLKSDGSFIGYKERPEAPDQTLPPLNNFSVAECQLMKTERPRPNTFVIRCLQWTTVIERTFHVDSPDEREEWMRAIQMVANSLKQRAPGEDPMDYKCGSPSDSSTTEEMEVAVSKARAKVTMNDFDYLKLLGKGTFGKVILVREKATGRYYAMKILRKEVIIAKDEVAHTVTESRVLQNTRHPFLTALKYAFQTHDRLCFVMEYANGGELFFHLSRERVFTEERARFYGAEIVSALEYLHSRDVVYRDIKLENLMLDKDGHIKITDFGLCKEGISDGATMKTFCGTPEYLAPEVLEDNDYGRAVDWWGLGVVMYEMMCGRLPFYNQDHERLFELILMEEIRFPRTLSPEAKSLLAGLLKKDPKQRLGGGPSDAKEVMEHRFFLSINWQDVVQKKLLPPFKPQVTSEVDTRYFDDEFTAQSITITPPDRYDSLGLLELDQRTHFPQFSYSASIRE

ASK2 = target: T5, ASK2 (Homo sapiens, UniProt O95382); experiment: KINOMEscan panel screen; format: binding; conditions: read-out: Percent Control(%)
T5 construct: purchased DiscoveRx KINOMEscan (Ambit Biosciences)

BMPR2 = target: T6, BMPR2 (Homo sapiens, UniProt Q13873); experiment: KINOMEscan panel screen; format: binding; conditions: read-out: Percent Control(%)
T6 construct: purchased DiscoveRx KINOMEscan (Ambit Biosciences)
T6 sequence (Q13873 27-1038): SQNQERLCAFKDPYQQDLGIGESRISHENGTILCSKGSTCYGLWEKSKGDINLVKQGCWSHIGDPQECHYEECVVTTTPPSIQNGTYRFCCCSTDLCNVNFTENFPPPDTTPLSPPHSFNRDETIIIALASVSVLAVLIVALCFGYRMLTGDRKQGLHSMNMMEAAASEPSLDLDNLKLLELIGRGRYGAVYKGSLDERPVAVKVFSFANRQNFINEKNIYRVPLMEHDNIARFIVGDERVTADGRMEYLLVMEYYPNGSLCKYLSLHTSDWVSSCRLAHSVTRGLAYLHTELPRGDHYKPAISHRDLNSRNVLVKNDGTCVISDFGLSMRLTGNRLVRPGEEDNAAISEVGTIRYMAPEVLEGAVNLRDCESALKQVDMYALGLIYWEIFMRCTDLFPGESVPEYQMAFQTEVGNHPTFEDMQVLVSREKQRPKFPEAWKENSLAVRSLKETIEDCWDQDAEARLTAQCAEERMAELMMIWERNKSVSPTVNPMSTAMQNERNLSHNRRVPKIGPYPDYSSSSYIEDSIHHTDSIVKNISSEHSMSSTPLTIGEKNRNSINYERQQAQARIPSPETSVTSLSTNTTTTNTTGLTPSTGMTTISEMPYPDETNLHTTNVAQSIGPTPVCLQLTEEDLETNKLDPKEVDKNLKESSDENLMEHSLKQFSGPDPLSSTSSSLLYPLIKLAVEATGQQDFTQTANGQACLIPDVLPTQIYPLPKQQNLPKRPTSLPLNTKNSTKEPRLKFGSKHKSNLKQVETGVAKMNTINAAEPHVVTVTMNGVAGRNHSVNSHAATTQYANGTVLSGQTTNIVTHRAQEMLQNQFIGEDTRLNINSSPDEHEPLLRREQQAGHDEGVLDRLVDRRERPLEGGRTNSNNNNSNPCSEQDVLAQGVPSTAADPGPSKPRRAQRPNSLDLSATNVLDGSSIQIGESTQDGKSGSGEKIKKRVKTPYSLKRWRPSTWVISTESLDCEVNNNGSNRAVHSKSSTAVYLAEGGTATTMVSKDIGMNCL

CHEK2 = target: T7, CHEK2 (Homo sapiens, UniProt O96017); experiment: KINOMEscan panel screen; format: binding; conditions: read-out: Percent Control(%)
T7 construct: purchased DiscoveRx KINOMEscan (Ambit Biosciences)

CSNK1G1 = target: T8, CSNK1G1 (Homo sapiens, UniProt Q9HCP0); experiment: KINOMEscan panel screen; format: binding; conditions: read-out: Percent Control(%)
T8 construct: purchased DiscoveRx KINOMEscan (Ambit Biosciences)
T8 sequence (Q9HCP0 whole entry): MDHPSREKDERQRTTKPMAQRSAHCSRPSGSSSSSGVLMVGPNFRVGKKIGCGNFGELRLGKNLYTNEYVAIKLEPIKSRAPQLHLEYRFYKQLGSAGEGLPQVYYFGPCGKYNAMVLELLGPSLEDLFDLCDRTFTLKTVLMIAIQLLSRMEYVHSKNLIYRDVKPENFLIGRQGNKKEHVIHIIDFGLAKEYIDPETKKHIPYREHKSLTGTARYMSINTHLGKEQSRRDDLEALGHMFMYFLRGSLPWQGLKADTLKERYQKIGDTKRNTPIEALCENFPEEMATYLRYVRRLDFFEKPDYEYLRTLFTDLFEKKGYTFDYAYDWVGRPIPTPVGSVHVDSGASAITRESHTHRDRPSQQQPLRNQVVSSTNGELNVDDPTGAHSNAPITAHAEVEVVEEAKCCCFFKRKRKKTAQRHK

DLK = target: T9, DLK (Homo sapiens, UniProt Q12852); experiment: KINOMEscan panel screen; format: binding; conditions: read-out: Percent Control(%)
T9 sequence (Q12852 1-859): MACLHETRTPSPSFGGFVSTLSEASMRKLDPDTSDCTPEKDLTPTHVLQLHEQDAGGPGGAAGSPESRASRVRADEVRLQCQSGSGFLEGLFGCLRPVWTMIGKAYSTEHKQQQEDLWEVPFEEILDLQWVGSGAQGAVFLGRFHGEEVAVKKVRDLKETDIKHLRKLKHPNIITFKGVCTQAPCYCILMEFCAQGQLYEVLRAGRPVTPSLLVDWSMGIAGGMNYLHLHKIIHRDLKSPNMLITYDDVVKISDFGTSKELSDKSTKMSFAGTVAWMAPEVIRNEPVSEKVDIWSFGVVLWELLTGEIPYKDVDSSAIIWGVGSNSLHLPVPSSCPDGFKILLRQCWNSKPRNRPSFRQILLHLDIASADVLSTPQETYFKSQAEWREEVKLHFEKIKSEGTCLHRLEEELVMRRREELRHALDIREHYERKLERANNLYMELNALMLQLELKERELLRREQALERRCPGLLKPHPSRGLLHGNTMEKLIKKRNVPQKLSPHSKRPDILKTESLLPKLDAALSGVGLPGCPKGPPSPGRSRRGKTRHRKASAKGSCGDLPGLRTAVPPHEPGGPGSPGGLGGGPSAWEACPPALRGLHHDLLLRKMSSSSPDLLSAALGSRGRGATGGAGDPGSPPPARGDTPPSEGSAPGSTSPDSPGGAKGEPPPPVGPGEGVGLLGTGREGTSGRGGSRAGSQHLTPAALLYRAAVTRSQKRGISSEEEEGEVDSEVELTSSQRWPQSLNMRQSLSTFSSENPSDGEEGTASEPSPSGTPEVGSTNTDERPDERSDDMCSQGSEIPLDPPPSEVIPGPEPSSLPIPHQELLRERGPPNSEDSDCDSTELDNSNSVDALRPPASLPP

EGFR(E746-A750del) = target: T10, EGFR(E746-A750del) (Homo sapiens, UniProt P00533, DEL746-750); experiment: KINOMEscan panel screen; format: binding; conditions: read-out: Percent Control(%)
T10 construct: purchased DiscoveRx KINOMEscan (Ambit Biosciences)
T10 sequence (P00533 with tags, fused parts or gaps DEL746-750 limits assumed): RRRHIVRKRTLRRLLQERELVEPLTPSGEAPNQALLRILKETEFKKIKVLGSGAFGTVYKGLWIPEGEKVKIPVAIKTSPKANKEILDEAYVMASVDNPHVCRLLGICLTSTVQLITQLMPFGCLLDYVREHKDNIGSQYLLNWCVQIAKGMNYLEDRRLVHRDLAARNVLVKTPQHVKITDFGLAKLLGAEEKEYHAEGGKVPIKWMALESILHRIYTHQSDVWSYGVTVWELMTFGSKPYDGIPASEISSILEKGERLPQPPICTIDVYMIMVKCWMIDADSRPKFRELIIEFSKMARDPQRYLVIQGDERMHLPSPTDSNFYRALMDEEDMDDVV

FGFR3 = target: T11, FGFR3 (Homo sapiens, UniProt P22607); experiment: KINOMEscan panel screen; format: binding; conditions: read-out: Percent Control(%)
T11 construct: purchased DiscoveRx KINOMEscan (Ambit Biosciences)

[2] = target: T12, JAK1(JH2domain-pseudokinase) (Homo sapiens, UniProt P23458); experiment: KINOMEscan panel screen; format: binding; conditions: read-out: Percent Control(%)
T12 construct: JAK1(JH2domain-pseudokinase); purchased DiscoveRx KINOMEscan (Ambit Biosciences)

LOK = LOK (Homo sapiens, UniProt O94804); experiment: KINOMEscan panel screen; format: binding; conditions: read-out: Percent Control(%)
Sequence of LOK (O94804 whole entry): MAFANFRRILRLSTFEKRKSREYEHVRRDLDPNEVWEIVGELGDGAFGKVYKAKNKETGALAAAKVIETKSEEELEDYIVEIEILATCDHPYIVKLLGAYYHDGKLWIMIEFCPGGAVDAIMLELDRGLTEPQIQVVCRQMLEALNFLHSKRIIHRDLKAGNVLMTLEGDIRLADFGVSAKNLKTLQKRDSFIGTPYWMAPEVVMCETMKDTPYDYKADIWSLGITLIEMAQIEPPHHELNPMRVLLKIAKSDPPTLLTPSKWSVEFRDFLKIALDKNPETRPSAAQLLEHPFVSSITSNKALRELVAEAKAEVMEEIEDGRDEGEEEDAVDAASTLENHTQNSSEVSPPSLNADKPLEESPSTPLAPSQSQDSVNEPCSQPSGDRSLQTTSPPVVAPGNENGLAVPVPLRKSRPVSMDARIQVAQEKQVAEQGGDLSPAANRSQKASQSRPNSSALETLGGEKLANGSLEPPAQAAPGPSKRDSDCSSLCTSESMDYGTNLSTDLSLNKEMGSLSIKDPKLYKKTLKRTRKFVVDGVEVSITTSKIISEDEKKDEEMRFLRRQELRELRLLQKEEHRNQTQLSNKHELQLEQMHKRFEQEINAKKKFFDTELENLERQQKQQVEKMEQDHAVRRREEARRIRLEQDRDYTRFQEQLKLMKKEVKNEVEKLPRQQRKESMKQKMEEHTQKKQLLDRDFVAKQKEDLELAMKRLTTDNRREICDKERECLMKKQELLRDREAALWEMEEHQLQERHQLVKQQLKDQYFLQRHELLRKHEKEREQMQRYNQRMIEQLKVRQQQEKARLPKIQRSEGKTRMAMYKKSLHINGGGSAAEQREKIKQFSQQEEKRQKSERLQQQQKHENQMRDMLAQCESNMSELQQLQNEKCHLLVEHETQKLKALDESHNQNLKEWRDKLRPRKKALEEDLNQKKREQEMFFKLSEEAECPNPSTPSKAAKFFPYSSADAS

PCTK1 = target: T13, PCTK1 (Homo sapiens, UniProt Q00536); experiment: KINOMEscan panel screen; format: binding; conditions: read-out: Percent Control(%)
T13 construct: purchased DiscoveRx KINOMEscan (Ambit Biosciences)

PIK3CA(H1047L) = target: T14, PIK3CA(H1047L) (Homo sapiens, UniProt P42336, H1047L); experiment: KINOMEscan panel screen; format: binding; conditions: read-out: Percent Control(%)
T14 construct: purchased DiscoveRx KINOMEscan (Ambit Biosciences)

PIK3CD = target: T15, PIK3CD (Homo sapiens, UniProt O00329); experiment: KINOMEscan panel screen; format: binding; conditions: read-out: Percent Control(%)
T15 construct: purchased DiscoveRx KINOMEscan (Ambit Biosciences)
T15 sequence (O00329 whole entry): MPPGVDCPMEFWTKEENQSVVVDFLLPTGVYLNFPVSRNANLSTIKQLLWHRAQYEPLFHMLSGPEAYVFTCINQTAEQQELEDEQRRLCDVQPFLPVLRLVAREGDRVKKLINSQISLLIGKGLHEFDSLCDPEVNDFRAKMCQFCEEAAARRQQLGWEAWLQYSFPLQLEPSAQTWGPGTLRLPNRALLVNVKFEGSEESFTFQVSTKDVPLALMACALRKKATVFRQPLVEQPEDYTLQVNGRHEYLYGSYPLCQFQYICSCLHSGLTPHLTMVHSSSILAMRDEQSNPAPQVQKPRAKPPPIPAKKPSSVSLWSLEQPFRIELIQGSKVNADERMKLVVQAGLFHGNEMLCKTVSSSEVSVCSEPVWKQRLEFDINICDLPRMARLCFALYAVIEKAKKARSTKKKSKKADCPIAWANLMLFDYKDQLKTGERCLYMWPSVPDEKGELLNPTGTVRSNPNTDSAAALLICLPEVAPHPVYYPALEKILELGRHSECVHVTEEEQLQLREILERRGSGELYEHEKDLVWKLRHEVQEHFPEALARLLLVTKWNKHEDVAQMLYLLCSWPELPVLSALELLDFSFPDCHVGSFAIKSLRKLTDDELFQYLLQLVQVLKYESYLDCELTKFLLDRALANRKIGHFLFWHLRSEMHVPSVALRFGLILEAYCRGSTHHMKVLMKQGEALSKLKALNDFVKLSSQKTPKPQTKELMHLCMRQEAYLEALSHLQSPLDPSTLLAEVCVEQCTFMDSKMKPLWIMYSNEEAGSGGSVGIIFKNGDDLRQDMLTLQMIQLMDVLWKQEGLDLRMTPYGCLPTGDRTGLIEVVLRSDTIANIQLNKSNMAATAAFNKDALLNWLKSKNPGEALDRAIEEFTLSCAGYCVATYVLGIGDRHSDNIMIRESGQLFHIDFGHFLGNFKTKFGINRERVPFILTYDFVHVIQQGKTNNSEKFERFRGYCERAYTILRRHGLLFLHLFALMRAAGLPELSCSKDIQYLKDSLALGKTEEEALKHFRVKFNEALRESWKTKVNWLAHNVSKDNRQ

SNRK = target: T16, SNRK (Homo sapiens, UniProt Q9NRH2); experiment: KINOMEscan panel screen; format: binding; conditions: read-out: Percent Control(%)
T16 construct: purchased DiscoveRx KINOMEscan (Ambit Biosciences)

DCLK1 = target: T17, DCLK1 (Homo sapiens, UniProt O15075); experiment: KINOMEscan kinase binding assay (Kd)
T17 construct: purchased Ambit Biosciences (KINOMEscan)

[3] = system: total β-catenin and active β-catenin in STF3a cells; experiment: Western blot of β-catenin in STF3a cells; format: cell-based; conditions: 10 μM or above, 24 h
[4] = Pharmacokinetic assessment in rats; format: in vivo, SD rats; conditions: rat, mean; for Tmax / half-life / AUC(0-t) / Cmax / t1/2: 10 mg/kg; for AUC(0-t): read-out: AUC(0-36h)
Protocol: Preliminary pharmacokinetic characteristics of SKLB-677 were assessed on rats with SKLB-677 at a dose of 10 mg/kg P.O. and I.V. administration. The key pharmacokinetic parameters calculated are summarized in Supplementary Table S6.
SD rats (6 per group) were orally treated or injected intravenously with 10 mg/kg SKLB-677, followed by the collection of blood from the jugular vein into heparinized tubes at the appropriate times. The plasma was isolated by centrifugation. The plasma concentrations of SKLB-677 were determined using liquid–liquid extraction followed by high-performance liquid chromatography (HPLC) with tandem mass spectrometric detection. Noncompartmental pharmacokinetic parameters (AUC, Tmax, Cmax, and t1⁄2) were obtained from the blood concentration time profiles using DAS software.
Supplementary Table S6. The pharmacokinetic characteristics of SKLB-677. […]
standard deviation. t1/2: Mean half-life associat ed with the terminal slope and standard deviation.C max: Mean peak plasma concentration and standard deviation.
Tmax: Mean time to reach max imum plasma concentration and standard dev iation. CL:
Mean bod y clearance and standard deviation. Vss: Mean volume of distribution at steady state and standard deviation. The statistical anal ysis of data was shown as mean values and SD v alues (n= 6) .

KG-1 = experiment: MTT cell viability assay; conditions: Homo sapiens, KG-1, 72 h

Compound: CC(C)(C)c1cc(NC(=O)Nc2ccc(Oc3ncnc4[nH]ncc34)c(F)c2)no1 [SKLB-677, 1-(4-(1H-pyrazolo[3,4-d]pyrimidin-4-yloxy)-3-fluorophenyl)-3-(5-tert-butylisoxazol-3-yl)urea]
- remaining binding at 10 µM [1]: 11%
- remaining binding at 10 µM (ABL1-nonphosphorylated): 1.2%
- remaining binding at 10 µM (ADCK4): 100%
- remaining binding at 10 µM (AKT2): 100%
- remaining binding at 10 µM (ASK2): 32%
- remaining binding at 10 µM (BMPR2): 14%
- remaining binding at 10 µM (CHEK2): 32%
- remaining binding at 10 µM (CSNK1G1): 86%
- remaining binding at 10 µM (DLK): 86%
- remaining binding at 10 µM (EGFR(E746-A750del)): 37%
- remaining binding at 10 µM (FGFR3): 12%
- remaining binding at 10 µM [2]: 74%
- remaining binding at 10 µM (LOK): 0%
- remaining binding at 10 µM (PCTK1): 0.2%
- remaining binding at 10 µM (PIK3CA(H1047L)): 84%
- remaining binding at 10 µM (PIK3CD): 98%
- remaining binding at 10 µM (SNRK): 100%
- Kd (DCLK1): > 10000 nM
- protein levels of the total β-catenin and active β-catenin [3]: slightly decreased
- clearance ([4]; SD, plasma, iv, 10 mg/kg I.V.): 0.617 mL/min/kg
- Vd ([4]; SD, plasma, iv, 10 mg/kg I.V., read-out: Vss (apparent volume of distribution, Vd)): 0.271 L/kg
- Tmax ([4]; SD, plasma, iv, 10 mg/kg I.V.): 0.033 h
- half-life ([4]; SD, plasma, iv, 10 mg/kg I.V.): 5.09 h
- AUC(0-t) ([4]; SD, plasma, iv, 10 mg/kg I.V.): 272 µg·h/mL
- Cmax ([4]; SD, plasma, iv, 10 mg/kg I.V., read-out: Cmax): 58200 ng/mL
- Tmax ([4]; SD, plasma, po, 10 mg/kg P.O.): 3 h
- half-life ([4]; SD, plasma, po, 10 mg/kg P.O.): 5.43 h
- AUC(0-t) ([4]; SD, plasma, po, 10 mg/kg P.O.): 176 µg·h/mL
- Cmax ([4]; SD, plasma, po, 10 mg/kg P.O., read-out: Cmax): 12300 ng/mL
- t1/2 ([4]; 10 mg/kg I.V.): 5.1 h
- CL ([4]; 10 mg/kg P.O.): 0.967 mL/min/kg
- Vss ([4]; 10 mg/kg P.O.): 0.446 L/kg
- Cmax ([4]; 10 mg/kg P.O.): 12280 ng/mL
- t1/2 ([4]; 10 mg/kg P.O.): 5.4 h
- IC50 (KG-1): 2000 nM
